{"source": "patent US6855719B1", "about": "“Imidazo[1,2-A]pyridine and pyrazolo[2,3-A]pyridine derivatives” (AstraZeneca AB, priority 1999, dated 2005)", "target": "T1, CDK2/Cyclin E (Homo sapiens, UniProt P24941)", "T1 construct": "The open reading frames of CDK2 and Cyclin E were isolated by reverse transcriptase-PCR; made in house; host or cells: Sf21 (Spodoptera frugiperda) insect cells, baculovirus co-infection; GST-Rb substrate made in E. coli BL21 (DE3) pLysS", "experiment": "in vitro kinase assay (Scintillation Proximity Assay), incorporation of [γ-33-P]-ATP into GST-Rb", "assay_type": "biochemical", "conditions": "CDK2/Cyclin E partially-purified enzyme, GST-Rb substrate, 0.2 μM ATP, 60 minutes room temperature; read-out: CDK2 inhibitory activity IC50", "method": "The compounds were tested in an in vitro kinase assay in 96 well format using Scintillation Proximity Assay (SPA—obtained from Amersham) for measuring incorporation of [γ-33-P]-Adenosine Triphosphate into a test substrate (GST-Retinoblastoma protein; GST-Rb). In each well was placed the compound to be tested (diluted in DMSO and water to correct concentrations) and in control wells either roscovitine as an inhibitor control or DMSO as a […] control.\nApproximately 0.2 μl of CDK2/Cyclin E partially-purified enzyme (amount dependent on enzyme activity) diluted in 25 μl incubation buffer was added to each well then 20 μl of GST-Rb/ATP/ATP33 mixture (containing 0.5 μg GST-Rb and 0.2 μM ATP and 0.14 μCi [γ-33-P]-Adenosine Triphosphate in incubation buffer), and the resulting mixture shaken gently, then incubated at room temperature for 60 minutes. […]\nThe plates were sealed with Topseal-S plate sealers, left for two hours then spun at 2500 rpm, 1124× g., for 5 minutes. The plates were read on a Topcount for 30 seconds per well. […]\nThe open reading frames of CDK2 and Cyclin E were isolated by reverse transcriptase-PCR using HeLa cell and activated T cell mRNA as a template and cloned into the insect expression vector pVL1393 (obtained from Invitrogen 1995 catalogue number. V1392-20). […]", "note": "pIC50: −log10 of the molar value."}
{"smiles": "O=S(=O)(c1ccc(Nc2nccc(-c3cnc4ccccn34)n2)cc1)N1COCOC1", "note": "[Example 11, 2-[4-(3,5-Dioxapiperidin-1-yl)sulphonylanilino]-4-(imidazo[1,2a]pyrid-3-yl)pyrimidine]", "values": [{"measurement": "pIC50", "value": 6.72}]}
{"smiles": "CCN(CC)CCOc1ccc(Nc2nccc(-c3cnc4ccccn34)n2)cc1", "note": "[Example 12, 2-[4-(2-Diethylaminoethoxy)anilino]-4-(imidazo[1,2a]pyrid-3-yl)pyrimidine]", "values": [{"measurement": "pIC50", "value": 6.77}]}
